Measurements as given in patent publication EP0049968A1, “Pharmaceutical compositions” (priority 1980, dated 1982).

Experiments:
Assay type in all cases: cell-based
[1] = test system: highly resistant strains of Pseudomonas aeruginosa (producing both a plasmid-and chromosomally-mediated β-lactamase); experiment: MIC of compound (i) alone and in combination with compound (iii), Pseudomonas aeruginosa strains; conditions: for MIC µg/ml compound (i) compound (iii) (µg/ml) 2: with compound (iii) 2 µg/ml; for MIC µg/ml compound (i) compound (iii) (µg/ml) 5: with compound (iii) 5 µg/ml; for MIC µg/ml compound (i) compound (iii) (µg/ml) 10: with compound (iii) 10 µg/ml; for MIC µg/ml compound (i) compound (iii) (µg/ml) 1: with compound (iii) 1 µg/ml
[2] = test system: E. coli; experiment: MIC of compound (i) alone and in the presence of compound (iv), serial dilution in nutrient agar
Experimental: (§1) Activities of the compound (i) against a number of pathogenic organisms alone, and in the presence of 1.0, 2.5, 5.0 and 10 µg/ml of compound (iv).

[3] = test system: Klebsiella aerogenes A; experiment: as above
Experimental: as §1

[4] = test system: Proteus mirabilis C889; experiment: as above
Experimental: as §1

[5] = test system: Pseudomonas aeruginosa Dalgleish; experiment: as above
Experimental: as §1

[6] = test system: Serratia marcescens US39; experiment: as above
Experimental: as §1

[7] = test system: Staphylococcus aureus Russell; experiment: as above
Experimental: as §1

SMILES: CC1(C)S[C@@H]2[C@H](NC(=O)[C@H](NC(=O)Nc3cnc(Nc4ccc(S(N)(=O)=O)cc4)nc3O)c3ccc(O)cc3)C(=O)N2[C@H]1C(=O)O [compound (i)]
- MIC µg/ml compound (i) compound (iii) (µg/ml) 2 ([1]; strain 1822): 5 µg/mL
- MIC µg/ml compound (i) compound (iii) (µg/ml) 5 ([1]; strain 1822): 2.5 µg/mL
- MIC µg/ml compound (i) compound (iii) (µg/ml) 10 ([1]; strain 1822): 2.5 µg/mL
- MIC µg/ml compound (i) compound (iii) (µg/ml) 1 ([1]; strain Dalgleish): 20 µg/mL
- MIC µg/ml compound (i) compound (iii) (µg/ml) 2 ([1]; strain Dalgleish): 10 µg/mL
- MIC µg/ml compound (i) compound (iii) (µg/ml) 5 ([1]; strain Dalgleish): 5 µg/mL
- MIC µg/ml compound (i) compound (iii) (µg/ml) 10 ([1]; strain Dalgleish): 10 µg/mL
- MIC µg/ml compound (i) alone ([1]; strain FR6): >160 µg/mL
- MIC µg/ml compound (i) compound (iii) (µg/ml) 1 ([1]; strain FR6): 80 µg/mL
- MIC µg/ml compound (i) compound (iii) (µg/ml) 2 ([1]; strain FR6): 40 µg/mL
- MIC µg/ml compound (i) compound (iii) (µg/ml) 5 ([1]; strain FR6): 20 µg/mL
- MIC µg/ml compound (i) compound (iii) (µg/ml) 10 ([1]; strain FR6): 10 µg/mL
- MIC µg/ml compound (i) alone ([1]; strain FR13): >160 µg/mL
- MIC µg/ml compound (i) compound (iii) (µg/ml) 1 ([1]; strain FR13): 40 µg/mL
- MIC µg/ml compound (i) compound (iii) (µg/ml) 2 ([1]; strain FR13): 10 µg/mL
- MIC µg/ml compound (i) compound (iii) (µg/ml) 5 ([1]; strain FR13): 5 µg/mL
- MIC µg/ml compound (i) compound (iii) (µg/ml) 10 ([1]; strain FR13): 2.5 µg/mL
- MIC µg/ml compound (i) alone ([1]; strain Horton): >160 µg/mL
- MIC µg/ml compound (i) compound (iii) (µg/ml) 1 ([1]; strain Horton): 20 µg/mL
- MIC µg/ml compound (i) compound (iii) (µg/ml) 2 ([1]; strain Horton): 10 µg/mL
- MIC µg/ml compound (i) compound (iii) (µg/ml) 5 ([1]; strain Horton): 10 µg/mL
- MIC µg/ml compound (i) compound (iii) (µg/ml) 10 ([1]; strain Horton): 20 µg/mL
- MIC µg/ml compound (i) alone ([1]; strain P22): >160 µg/mL
- MIC µg/ml compound (i) compound (iii) (µg/ml) 1 ([1]; strain P22): 10 µg/mL
- MIC µg/ml compound (i) compound (iii) (µg/ml) 2 ([1]; strain P22): 5 µg/mL
- MIC µg/ml compound (i) compound (iii) (µg/ml) 5 ([1]; strain P22): 5 µg/mL
- MIC µg/ml compound (i) compound (iii) (µg/ml) 10 ([1]; strain P22): 5 µg/mL
- MIC (μg/ml) for compound (i) ([2]; E. coli JT4 R+, compound (iv) 0 μg/ml (alone)): >100 µg/mL
- MIC (μg/ml) for compound (i) ([2]; E. coli JT4 R+, compound (iv) 1.0 μg/ml): 10 µg/mL
- MIC (μg/ml) for compound (i) ([2]; E. coli JT4 R+, compound (iv) 2.5 μg/ml): 2.5 µg/mL
- MIC (μg/ml) for compound (i) ([2]; E. coli JT4 R+, compound (iv) 5.0 μg/ml): 1.0 µg/mL
- MIC (μg/ml) for compound (i) ([2]; E. coli JT4 R+, compound (iv) 10 μg/ml): 0.5 µg/mL
- MIC (μg/ml) for compound (i) ([2]; E. coli JT39 R+, compound (iv) 0 μg/ml (alone)): >100 µg/mL
- MIC (μg/ml) for compound (i) ([2]; E. coli JT39 R+, compound (iv) 1.0 μg/ml): 1.0 µg/mL
- MIC (μg/ml) for compound (i) ([2]; E. coli JT39 R+, compound (iv) 2.5 μg/ml): 0.5 µg/mL
- MIC (μg/ml) for compound (i) ([2]; E. coli JT39 R+, compound (iv) 5.0 μg/ml): 0.5 µg/mL
- MIC (μg/ml) for compound (i) ([2]; E. coli JT39 R+, compound (iv) 10 μg/ml): 0.1 µg/mL
- MIC (μg/ml) for compound (i) ([3]; compound (iv) 0 μg/ml (alone)): 5.0 µg/mL
- MIC (μg/ml) for compound (i) ([3]; compound (iv) 1.0 μg/ml): 0.05 µg/mL
- MIC (μg/ml) for compound (i) ([3]; compound (iv) 2.5 μg/ml): 0.05 µg/mL
- MIC (μg/ml) for compound (i) ([3]; compound (iv) 5.0 μg/ml): 0.05 µg/mL
- MIC (μg/ml) for compound (i) ([3]; compound (iv) 10 μg/ml): 0.05 µg/mL
- MIC (μg/ml) for compound (i) ([4]; compound (iv) 0 μg/ml (alone)): >100 µg/mL
- MIC (μg/ml) for compound (i) ([4]; compound (iv) 1.0 μg/ml): 0.5 µg/mL
- MIC (μg/ml) for compound (i) ([4]; compound (iv) 2.5 μg/ml): 0.2 µg/mL
- MIC (μg/ml) for compound (i) ([4]; compound (iv) 5.0 μg/ml): 0.1 µg/mL
- MIC (μg/ml) for compound (i) ([4]; compound (iv) 10 μg/ml): 0.1 µg/mL
- MIC (μg/ml) for compound (i) ([5]; inoculum 10^-2, compound (iv) 0 μg/ml (alone)): 50 µg/mL
- MIC (μg/ml) for compound (i) ([5]; inoculum 10^-2, compound (iv) 1.0 μg/ml): 2.5 µg/mL
- MIC (μg/ml) for compound (i) ([5]; inoculum 10^-2, compound (iv) 2.5 μg/ml): 1.0 µg/mL
- MIC (μg/ml) for compound (i) ([5]; inoculum 10^-2, compound (iv) 5.0 μg/ml): 1.0 µg/mL
- MIC (μg/ml) for compound (i) ([5]; inoculum 10^-2, compound (iv) 10 μg/ml): 2.5 µg/mL
- MIC (μg/ml) for compound (i) ([5]; inoculum Undiluted, compound (iv) 0 μg/ml (alone)): >100 µg/mL
- MIC (μg/ml) for compound (i) ([5]; inoculum Undiluted, compound (iv) 1.0 μg/ml): 10 µg/mL
- MIC (μg/ml) for compound (i) ([5]; inoculum Undiluted, compound (iv) 2.5 μg/ml): 5.0 µg/mL
- MIC (μg/ml) for compound (i) ([5]; inoculum Undiluted, compound (iv) 5.0 μg/ml): 5.0 µg/mL
- MIC (μg/ml) for compound (i) ([5]; inoculum Undiluted, compound (iv) 10 μg/ml): 10 µg/mL
- MIC (μg/ml) for compound (i) ([6]; compound (iv) 0 μg/ml (alone)): 50 µg/mL
- MIC (μg/ml) for compound (i) ([6]; compound (iv) 1.0 μg/ml): 0.5 µg/mL
- MIC (μg/ml) for compound (i) ([6]; compound (iv) 2.5 μg/ml): 1.0 µg/mL
- MIC (μg/ml) for compound (i) ([6]; compound (iv) 5.0 μg/ml): 2.5 µg/mL
- MIC (μg/ml) for compound (i) ([6]; compound (iv) 10 μg/ml): 5.0 µg/mL
- MIC (μg/ml) for compound (i) ([7]; compound (iv) 0 μg/ml (alone)): 50 µg/mL
- MIC (μg/ml) for compound (i) ([7]; compound (iv) 1.0 μg/ml): 2.5 µg/mL
- MIC (μg/ml) for compound (i) ([7]; compound (iv) 2.5 μg/ml): 2.5 µg/mL
- MIC (μg/ml) for compound (i) ([7]; compound (iv) 5.0 μg/ml): 1.0 µg/mL
- MIC (μg/ml) for compound (i) ([7]; compound (iv) 10 μg/ml): 1.0 µg/mL
